Active and inactive are the calls of the source. How the calls were made is not given here.

For the assay, the target named is Serine/threonine-protein kinase mTOR (Homo sapiens) (UniProt P42345). The experiment in a line: binders of mTOR FRB domain, biophysical, NMR (AID 1648). The settings on record: NMR binding to FRB domain, chemical shift.
Chain of Serine/threonine-protein kinase mTOR (Homo sapiens) (P42345 2015-2114): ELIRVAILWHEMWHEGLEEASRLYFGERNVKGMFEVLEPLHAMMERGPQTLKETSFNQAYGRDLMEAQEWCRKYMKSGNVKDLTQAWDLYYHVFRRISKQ
A word on the Kd: it is a measure of binding affinity in units of concentration. Take `O=C1OCCC1Sc1nc2ccccc2c(=O)[nH]1` (configuration not stated): the Kd was > 4 mM (inactive).

For the compound `CC(=O)/C=C\[C@@H]1[C@@]2(C)CCCC(C)(C)C2CC[C@@]1(C)O` (some centres not stated), the Kd is > 4 mM (inactive). Under `CCN1CCC2(CC1)CC1CC3C=CC1(CN2C(C)=O)O3` (configuration not stated) stands > 4 mM (inactive). Under `Cc1nnc(NCCCO)[nH]c1=O` stands > 4 mM (inactive).

Take `O=C(O)CSc1nc2ccccc2c(=O)[nH]1`: the Kd is > 4 mM (inactive). The result for `CSc1nc(-c2ccccc2)ccc1C(N)=O` reads > 4 mM (inactive); that for `Nc1ccc(-c2cnco2)cc1`, > 4 mM (inactive). Under `CCCSc1nnc2[nH]c(=O)cc(N)n12` stands > 4 mM (inactive); under `CC(=O)NC1C(=O)Nc2c(C)cc(C)cc21` (configuration not stated), > 4 mM (inactive). With `C=C1C2=CC(=O)O[C@@H](c3ccoc3)[C@]2(C)CCC1[C@@]1(C)C=CC(=O)C(C)(C)[C@@H]1CC(=O)OC` (some centres not stated), the Kd was > 4 mM (inactive). For `Cc1nnsc1C(=O)O`, the Kd is > 4 mM (inactive). Turning to `COc1ccccc1N1C(=N)SCC1=O`, the Kd is > 4 mM (inactive). Under `CC(C)=CCCC1(C)C=Cc2c(O)c3c(c(CC=C(C)C)c2O1)OC12C(=CCCC1C(C)(C)O[C@@]2(C/C=C(\C)C(=O)O)C(=O)O)C3=O` (some centres not stated) stands > 4 mM (inactive). The result for `CC1CC[C@@]2(OC1)O[C@H]1CC3C4CC[C@@H]5C[C@@H](O)CC[C@]5(C)C4CC[C@]3(C)[C@H]1[C@@H]2C` (some centres not stated) reads > 4 mM (inactive); that for `COc1cc(C(C)=O)cc(OC)c1O`, > 4 mM (inactive); that for `CCOC12NC(=O)CC(=O)N1C(c1ccccc1)=CS2` (configuration not stated), > 4 mM (inactive). As for `CCC(C)C(=O)O[C@H]1[C@H](O)C2C(CN3CC(C)CCC3[C@@]2(C)O)C2C[C@]34O[C@]5(O)C(OC(=O)C(C)(O)CC)CC[C@@]3(C)C5C(OC(C)=O)[C@@H](OC(C)=O)C4[C@@]21O` (some centres not stated), the Kd is > 4 mM (inactive). Under `Cc1noc(C)c1C(=O)N1CCC2(CC1)OCCO2` stands > 4 mM (inactive); under `COc1ccc(-c2cn[nH]c2N)c(OC)c1`, > 4 mM (inactive); under `CC(=O)N(c1ccccc1)C1C=CS(=O)(=O)C1` (configuration not stated), > 4 mM (inactive). Under `COc1cc2ccc(=O)oc2c2ccoc12` stands > 4 mM (inactive). The result for `CCS(=O)(=O)N1CCN(c2ccccc2F)CC1` reads > 4 mM (inactive); that for `O=C(CSc1ccccc1)N1CCC2(CC1)OCCO2`, > 4 mM (inactive). As for `NC(=O)C1CCN(C(=S)c2ccccc2)CC1`, the Kd was > 4 mM (inactive). The result for `O=c1/c(=C\c2cccnc2)sc2nc3ccccc3n12` reads > 4 mM (inactive); that for `N/C(=N/S(=O)(=O)c1cccs1)c1ccccc1`, > 4 mM (inactive). Take `O=C1NC(=O)C(C2SC(=O)NC2=O)S1` (configuration not stated): the Kd was > 4 mM (inactive). Under `O=c1c(O)c(-c2ccccc2)oc2ccccc12` stands > 4 mM (inactive); under `Cc1c(CO)cnn1-c1ccccc1`, > 4 mM (inactive). The result for `Cc1cc(=O)c2c(O)c(C)c(O)cc2o1` reads > 4 mM (inactive); that for `CN1CCN(C(=S)c2ccc(N(C)C)cc2)CC1`, > 4 mM (inactive). Under `O=C(Cc1cccs1)N1CCOCC1` stands > 4 mM (inactive); under `Cc1cc(=O)n(C(N)=S)[nH]1`, > 4 mM (inactive); under `C[C@]12CCC(=O)C=C1CCC1C2C(=O)C[C@@]2(C)C1CC[C@]2(O)C(=O)CO` (some centres not stated), > 4 mM (inactive). On to `Cc1cc2ncc(C(=O)O)c(C)n2n1`, for which the Kd was > 4 mM (inactive). The result for `COc1c(C(C)C)oc2cc3oc(=O)ccc3cc12` reads > 4 mM (inactive); that for `Cc1ccc(-n2nnnc2SCC(N)=O)c(C)c1`, > 4 mM (inactive); that for `Nc1cccc2cccnc12`, > 4 mM (inactive).

On to `COC(=O)C(O)c1ccccc1` (configuration not stated), for which the Kd was > 4 mM (inactive).

Regarding `CC1(C)Cc2nc3[nH]c(=S)[nH]c(=O)c3cc2CO1`, the Kd was > 4 mM (inactive). The result for `CC(C)(C)c1cc(N)n[nH]1` reads > 4 mM (inactive); that for `Cc1oc2nc3c(c(=O)[nH]c(=O)n3C)n2c1C`, > 4 mM (inactive).

Regarding `Cc1ccc(S(=O)(=O)/N=C2\NC(=O)CS2)cc1`, the Kd is > 4 mM (inactive). For `Cc1onc(-c2c(F)cccc2Cl)c1C(N)=O`, the Kd is > 4 mM (inactive). The result for `NC(=O)CN1CC(=O)NC(=O)C1` reads > 4 mM (inactive). For `COc1ccc2[nH]c(O)c(NC(C)=O)c2c1`, the Kd is > 4 mM (inactive).

`Cc1occc1C(=O)Nc1nnc(C(F)(F)F)s1`: the Kd was > 4 mM (inactive). Under `CCOc1ccc(C(=O)c2ccncc2)cc1` stands > 4 mM (inactive); under `CCCCC(Nc1n[nH]c(=O)[nH]c1=O)C(=O)O` (configuration not stated), > 4 mM (inactive). The result for `Cc1cccc(-n2c(N)cc(=O)[nH]c2=S)c1C` reads > 4 mM (inactive); that for `O=Cc1c(N2CCOCC2)nc2ccccn2c1=O`, > 4 mM (inactive); that for `COc1cc(O)c(C)c(O)c1`, > 4 mM (inactive). For the compound `CC(=O)c1sc2nc(N)nn2c1C`, the Kd is > 4 mM (inactive). As for `Cn1cc(Cl)c(C(=O)NC2CCCCCC2)n1`, the Kd was > 4 mM (inactive). Under `O=C(CNC(=O)c1cccs1)NC1=NCCS1` stands > 4 mM (inactive); under `C=CCn1c(N)c(C(=O)N2CCOCC2)sc1=S`, > 4 mM (inactive). Under `CC(=O)CC1(O)C(=O)Nc2ccccc21` (configuration not stated) stands > 4 mM (inactive). The result for `CC(=O)CC1(O)C(=O)Nc2ccc(Br)cc21` (configuration not stated) reads > 4 mM (inactive); that for `CCCCCc1c2c(cc(O)c1C(=O)O)OC(=O)c1c(cc(OC)cc1C(=O)CCCC)O2`, > 4 mM (inactive). Consider `NC(=O)CSc1ccc(-c2ccccc2)nn1`, for which the Kd is > 4 mM (inactive). The result for `O=C1C2CCCCC2C(=O)N1c1nccs1` (configuration not stated) reads > 4 mM (inactive); that for `CC(C)[C@@H]1CC[C@@H](C)C[C@H]1O`, > 4 mM (inactive). Under `COc1cccc(-c2nc(-c3ccccn3)no2)c1OC` stands > 4 mM (inactive); under `CS(C)=C1C(=O)NC(=O)N(c2ccccc2)C1=O`, > 4 mM (inactive); under `O=C(Nc1ccon1)c1sc2cc(F)ccc2c1Cl`, > 4 mM (inactive). Under `O=C1c2ccccc2C(=O)N1OCc1ccccc1` stands > 4 mM (inactive); under `NC(N)=NCCCCN=C(N)N`, > 4 mM (inactive); under `CC(=O)O[C@@H]1CC[C@@]2(C)C(CC[C@]3(C)C2CC=C2C4CC(C)(C)CC[C@]4(C(=O)O)CC[C@]23C)C1(C)C` (some centres not stated), > 4 mM (inactive). In the case of `CCCCN1C(=O)N(C)C2NC(=O)NC21` (configuration not stated), the Kd is > 4 mM (inactive). Under `COC1=CC(C)[C@@H]2C[C@H]3OC(=O)C[C@H]4C(C)=C(OC)C(=O)C([C@@]34C)[C@@]2(C)C1=O` (some centres not stated) stands > 4 mM (inactive). The result for `Nc1nc(O)c(C2=c3cc(Cl)ccc3=NC2=O)s1` reads > 4 mM (inactive); that for `O=C(NC(=S)NN1CCOCC1)c1cccs1`, > 4 mM (inactive).

Source of the values: PubChem BioAssay AID1648 (Sanford-Burnham Center for Chemical Genomics, 2009).
